Reference: PMC5608908, “Novel scaffolds for inhibition of Cruzipain identified from high-throughput screening of anti-kinetoplastid chemical boxes” (Scientific Reports, 2017)

What was measured:
Cruzipain [1] = target: T1, Cruzipain (Trypanosoma cruzi, UniProt P25779); type: biochemical; conditions: E-64 1 nM, Cruzipain 5.8 nM, 24 replicates
T1 construct: Cruzipain (CZP) was purified to homogeneity from epimastigotes of the Tul 2 strain; from tissue; host or cells: Trypanosoma cruzi epimastigotes, Tul 2 strain (natural enzyme, not recombinant)
T1 sequence (P25779 123-467): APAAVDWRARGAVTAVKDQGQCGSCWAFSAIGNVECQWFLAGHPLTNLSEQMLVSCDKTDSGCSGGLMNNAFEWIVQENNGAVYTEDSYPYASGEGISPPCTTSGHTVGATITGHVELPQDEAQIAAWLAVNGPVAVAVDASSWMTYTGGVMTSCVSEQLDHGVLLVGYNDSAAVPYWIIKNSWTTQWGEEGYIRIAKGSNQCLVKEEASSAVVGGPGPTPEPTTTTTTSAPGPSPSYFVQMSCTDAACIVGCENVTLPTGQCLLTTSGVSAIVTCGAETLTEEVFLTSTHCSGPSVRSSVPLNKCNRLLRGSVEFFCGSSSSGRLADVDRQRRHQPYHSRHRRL
Procedure: Assay was performed in a solid black 384-well plate (final reaction volume ~80 μL) and the release of 7-amino-4-methylcoumarin was monitored continuously at 30 °C with a Beckman Coulter DTX 880 Multimode Reader (Radnor, Pennsylvania, USA) using standard 340 nm excitation and 450 nm emission filter set. Final substrate concentration was set to 2 μM to match previously reported conditions[31] and being close to the KM value for this substrate. Optimal Cruzipain assay concentration (5.8 nM) was selected from 2-fold serial dilutions to match three criteria: (i) being linearly proportional to V0, (ii) display robust signal evolution at 2 μM substrate concentration and (iii) display linear kinetics for enough time to perform several reading cycles (at least 10 cycles, minimum time between cycles: 264 sec) through the 384-wells. […]

Cruzipain [2] = target: T1, Cruzipain; type: biochemical; conditions: for Hit call by statistically robust cutoff (µC+ − 3 × SDC+): compound 25 µM, singlet
Procedure: (§1) Assay was performed in a solid black 384-well plate (final reaction volume ~80 μL) and the release of 7-amino-4-methylcoumarin was monitored continuously at 30 °C with a Beckman Coulter DTX 880 Multimode Reader (Radnor, Pennsylvania, USA) using standard 340 nm excitation and 450 nm emission filter set. Final substrate concentration was set to 2 μM to match previously reported conditions[31] and being close to the KM value for this substrate. Optimal Cruzipain assay concentration (5.8 nM) was selected from 2-fold serial dilutions to match three criteria: (i) being linearly proportional to V0, (ii) display robust signal evolution at 2 μM substrate concentration and (iii) display linear kinetics for enough time to perform several reading cycles (at least 10 cycles, minimum time between cycles: 264 sec) through the 384-wells. In all cases, E-64(final concentration 125 nM) was used as positive inhibition control.
To perform the high-throughput screening, 1 μL of each compound (2 mM in DMSO), E-64 (10 μM in DMSO) or DMSO (negative controls) were dispensed into 384-well Corning black solid-bottom assay plates. Then, 40 μL of 100 mM NaAc, 5 mM DTT, 0.01% Triton X-100 pH 5.5 containing Cruzipain (11,6 nM) were added to each well, plates were homogenized (30 seg, orbital, medium intensity) and each well subjected to a single autofluorescence read (exc/ems = 340/450 nm). Plates were incubated in darkness for 15 min at 30 °C and then 40 μL of Z-FR-AMC (4 μM) in assay buffer were added to each well to start the reaction. After homogenization (30 seg, orbital, medium intensity), the fluorescence of AMC (exc/ems = 340/450 nm) was acquired kinetically for each well (12 read cycles, one cycle every 300 seconds).
Raw screening measurements were used to determine the slope (dF/dt) of progression curves by linear regression for control and compound wells. In the case of control-dependent hit selection criterium, percent inhibition (%Inh) was calculated for each compound according to Eq. 6:6 %Inh=100⋅[1−(dF/dt^WELL−µ^C−)/(µ^C+−µ^C−)] where dF/dt^WELL represents the slope of each compound well and µ^C+ and µ^C− the average of Cruzipain (no-inhibition) and substrate (no-enzyme) controls, respectively.

T. cruzi = system: T. cruzi; design: method as in PMID 9705954, PMID 17698625, PMID 16304193; conditions: immunocompetent and immunodeficient mice, dogs; cited from earlier work
Cruzipain [3] = target: T1, Cruzipain; type: biochemical; conditions: for Behavior of dose-response curve: compound 62.5 µM – 7.5 pM; for Ki (tight-binding, suggested from IC50 in the order of the enzyme concentration): estimate from IC50 values
Procedure: as §1
To avoid any positional and/or association bias, we randomly defined the row position for each compound. One μL of compounds stock (10 mM in DMSO) and E-64 (10 mM in DMSO) were added to the first well of column 1, followed by addition of 40 μL of 100 mM NaAc, 5 mM DTT, 0.01% Triton X-100 pH 5.5 buffer. After addition of 20 μL of the same buffer to subsequent wells of the plate, 22 serial 2-fold dilutions were made horizontally. The last two positions of every row were used, alternatively, for C^+ and C^− controls to reduce any positional and/or association bias. Then, 20 μL of activity buffer containing Cruzipain ([…]) were added to each well, except for those corresponding to C^−; completed with 20 μL of activity buffer. After homogenization, 15 minutes of incubation at 30 °C and autofluorescence measurement, 40 μL of a 4 μM solution of Z-FR-AMC substrate (in activity buffer) was added to the previous mix. Data collection and processing were performed exactly as described above. Percentage of Cruzipain residual activity was calculated for each condition according to Eq. 7:7 %Res.Act.^CRUZIPAIN=100⋅[(dF/dt^WELL−µ^C−)/(µ^C+−µ^C−)] where dF/dt^WELL represents the slope of each compound well and µ^C+ and µ^C− the average of Cruzipain (no-inhibition) and substrate (no-enzyme) controls, respectively. The IC50 and Hill slope parameters for each compound were estimated by fitting the four-parameter Hill equation to experimental data from dose-response curves using the GraphPad Prism program (version 5.03).

Cruzipain [4] = target: T1, Cruzipain; test: biochemical; conditions: Cruzipain 11.6 nM; for IC50: Z-FR-AMC 2 μM, pH 5.5, 30 °C, 15 min preincubation, four-parameter Hill fit; for Hill Slope: four-parameter Hill fit of dose-response curve
[5] = system: T. cruzi intracellular amastigotes; design: method as in PMID 25740547; conditions: T. cruzi intracellular amastigotes vs T. brucei axenic bloodstream forms; cited from earlier work

Structure (SMILES) | Hit call by statistically robust cutoff (µC+ − 3 × SDC+) (Cruzipain [2]) | IC50 (Cruzipain [4]) [µM] | Hill Slope (Cruzipain [4]) | also measured
CC(C)C[C@H](NC(=O)[C@H]1O[C@@H]1C(=O)O)C(=O)NCCCCN=C(N)N (relative stereo) [Compound E-64, trans-epoxysuccinyl-L-leucylamido-(4-guanidino)butane, reference compound] |  |  |  | average inhibition with respect to Cruzipain control (Cruzipain [1]): 9.87%; E-64 Control activity slope, Mean, Plate 2 (Cruzipain [2]; E-64 final concentration 125 nM, Cruzipain control 210.84): 6.36 RFU/sec; E-64 Control activity slope, Mean, Plate 1 (Cruzipain [2]; E-64 final concentration 125 nM, Cruzipain control 893.31): 19.30 RFU/sec
CN1CCN(C(=O)N[C@@H](Cc2ccccc2)C(=O)N[C@H](/C=C/S(=O)(=O)c2ccccc2)CCc2ccccc2)CC1 [Compound K777, N-[(2 S)-1-[[(E,3 S)-1-(benzenesulfonyl)-5-phenylpent-1-en-3-yl]amino]-1-oxo-3-phenylpropan-2-yl]-4-methylpiperazine-1-carboxamide] |  |  |  | Efficacy in preclinical models of T. cruzi infection (T. cruzi): efficacious
NCC(Cc1ccccc1)NC(=O)c1cnc(-c2c[nH]c3ncccc23)s1.O=C(O)C(F)(F)F.O=C(O)C(F)(F)F (stereo not shown) [TCMDC-143176] |  |  |  | Behavior of dose-response curve (Cruzipain [3]): activation phenotype at highest concentrations
COc1cc(OC)cc(C(=O)N[C@@H](CC(C)C)C(=O)NC2(C#N)CC2)c1 [TCMDC-143390] |  | 0.0678 | −0,9354 | IC50 range against Cruzipain, in words (Cruzipain [3]): submicromolar range; Ki (tight-binding, suggested from IC50 in the order of the enzyme concentration) (Cruzipain [3]): 1 to 4 × 10^−8 M
CC(C)C[C@H](NC(=O)c1ccc(-c2ccccc2)o1)C(=O)NC1(C#N)CC1 [TCMDC-143393] |  | 0.0303 | −0,957 | IC50 against T. cruzi relative to T. brucei [5]: between one and two orders of magnitude higher; IC50 range against Cruzipain, in words (Cruzipain [3]): submicromolar range; Ki (tight-binding, suggested from IC50 in the order of the enzyme concentration) (Cruzipain [3]): 1 to 4 × 10^−8 M
NC(N)=Nc1nc(-c2ccc(NC(N)=NCCN3CCCC3)cc2)cs1 [TCMDC-143640] |  | 3390 | −0,9825 | 

Second part, led by results:

Hit call by statistically robust cutoff (µC+ − 3 × SDC+) (Cruzipain [2]) | IC50 (Cruzipain [4]) [µM] | Hill Slope (Cruzipain [4]) | Structure (SMILES) | also measured
positive hits |  |  | Cl.Cl.O=c1ccc2ccc(F)c3c2n1C[C@H]3CN1CCN(CC(O)c2cc3c(cn2)OCS3)CC1 (stereo partly shown) [TCMDC-143158] | 
positive hits |  |  | CC1(Oc2cncc(Cl)c2)CCN(Cc2cc3ccccc3[nH]2)C1 (stereo not shown) [TCMDC-143162] | 
 | 5650 | −0,7542 | COc1ccc(OC)c(S(=O)(=O)N(Cc2c(F)cccc2F)C2CCN(C#N)C2)c1 (stereo not shown) [TCMDC-143370] | IC50 range against Cruzipain, in words (Cruzipain [3]): low micromolar range
positive hits |  |  | COc1ccc2ncc(=O)n(CCN3CC[C@H](NCc4ncc(Cl)c5[nH]ncc45)[C@H](O)C3)c2n1 [TCMDC-143373] | Behavior of dose-response curve (Cruzipain [3]): erratic behavior
 | 16.1 | −0,7998 | COc1cc(F)c2ncc(F)c(CCN3CC[C@H](NCc4cc5c(cn4)OCS5)[C@@H](O)C3)c2c1 [TCMDC-143510] | 
 | 14.9 | −0,8108 | COc1ccc2ncc(Cl)c(CCN3CCC(NCc4cc5c(cn4)OCS5)C(O)C3)c2n1 (stereo not shown) [TCMDC-143513] | 
positive hits |  |  | COc1ccc2nccc([C@H](O)CN3CC[C@H](NC(=O)c4ccc(Br)cc4)[C@@H](O)C3)c2n1 [TCMDC-143527] | 
